Holding throughout (type): in vivo
For experiment [1], the system named is Echinochloa crus-galli (ECHCG). Nature of the experiment: Pre-emergence biological efficacy (percentage damage). The note with it: dose 1,000 g/ha, evaluated after 13 days, 100=total damage, 0=no damage; for pest or weed control at 1000 g/ha: Echinochloa crus-galli, 312 h. In short, it runs like this: (§1)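 In this pre-emergence test, pots of standard soil sown with seed are treated after one day of glasshouse cultivation using compound formulated in acetone/water (50:50) containing 0.5% Tween 20, dosed at 250 or 1000 g/ha. Growth continues at 24/16 °C day/night with 14 h light and 65% humidity, and damage is rated after 13 days.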

Experiment [2] deals with Ipomea hederaceae (IPOHE). The description is as above. The following applies: dose 1,000 g/ha, evaluated after 13 days, 100=total damage, 0=no damage; for pest or weed control at 1000 g/ha: Ipomoea hederacea, 312 h. In short, it runs like this: as §1
In experiment [3] the test system is Solanum nigrum (SOLNI). Described as above. The following applies: dose 1,000 g/ha, evaluated after 13 days, 100=total damage, 0=no damage; for pest or weed control at 1000 g/ha: Solanum nigrum, 312 h. The gist of the method: as §1
Experiment [4] has as its system Alopecurus myosuroides (ALOMY). The experiment is described as above. The note with it: dose 1,000 g/ha, evaluated after 13 days, 100=total damage, 0=no damage; for pest or weed control at 1000 g/ha: Alopecurus myosuroides, 312 h. The gist of the method:
as §1

Experiment [5] relates to Setaria faberi (SETFA). Described as above. The following applies: dose 1,000 g/ha, evaluated after 13 days, 100=total damage, 0=no damage; for pest or weed control at 1000 g/ha: Setaria faberi, 312 h. The gist of the method:
as §1

The test system of experiment [6] is Amaranthus retoflexus (AMARE). Described as above. The following applies: dose 1,000 g/ha, evaluated after 13 days, 100=total damage, 0=no damage; for pest or weed control at 1000 g/ha: Amaranthus retroflexus, 312 h. In short, it runs like this:
as §1

The test system of experiment [7] is Echinochloa crus-galli (ECHCG). Nature of the experiment: Post-emergence biological efficacy (percentage damage). The following applies: dose 1,000 g/ha, evaluated after 13 days, 100=total damage, 0=no damage; for pest or weed control at 1000 g/ha: Echinochloa crus-galli, 312 h. In short, it runs like this: (§2)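 Post-emergence glasshouse test: plants sprayed 8 days after sowing (24/16 °C day/night, 14 h light, 65% humidity) at 250 or 1000 g/ha, formulated in acetone/water 50:50 with 0.5% Tween 20. Damage scored visually 13 days after treatment on a 0–100 scale (100 = total damage).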

Experiment [8] relates to Ipomea hederaceae (IPOHE). Described as above. The following applies: dose 1,000 g/ha, evaluated after 13 days, 100=total damage, 0=no damage; for pest or weed control at 1000 g/ha: Ipomoea hederacea, 312 h. The gist of the method: as §2
Experiment [9] has as its system Solanum nigrum (SOLNI). The description is as above. The note with it: dose 1,000 g/ha, evaluated after 13 days, 100=total damage, 0=no damage; for pest or weed control at 1000 g/ha: Solanum nigrum, 312 h. The gist of the method:
as §2

The test system of experiment [10] is Alopecurus myosuroides (ALOMY). The experiment is described as above. The following applies: dose 1,000 g/ha, evaluated after 13 days, 100=total damage, 0=no damage; for pest or weed control at 1000 g/ha: Alopecurus myosuroides, 312 h. In short, it runs like this:
as §2

The test system of experiment [11] is Setaria faberi (SETFA). The description is as above. The note with it: dose 1,000 g/ha, evaluated after 13 days, 100=total damage, 0=no damage; for pest or weed control at 1000 g/ha: Setaria faberi, 312 h. In short, it runs like this:
as §2

Experiment [12] concerns Amaranthus retoflexus (AMARE). Described as above. The following applies: dose 1,000 g/ha, evaluated after 13 days, 100=total damage, 0=no damage; for pest or weed control at 1000 g/ha: Amaranthus retroflexus, 312 h. The gist of the method:
as §2

SMILES strings stand for the structures.

As to `C=Cc1c(C(=O)OC)nc(C2CC2)nc1N(C)C` [Compound 2-225, 2-Cyclopropyl-4-dimethylamino-5-ethenyl-6-methoxycarbonyl-pyrimidine], the pest or weed control at 1000 g/ha in [1] turned out to be 0%; in [2] it was 20%; with Solanum nigrum (SOLNI) [3], 0%; in [4], 0%; in the experiment on Setaria faberi (SETFA) [5] it was 0%; in experiment [6] it was 40%. Moreover, the pest or weed control at 1000 g/ha in experiment [7] amounted to 0%; in experiment [8], 30%; in the experiment on Solanum nigrum (SOLNI) [9], 50%; in experiment [10], 0%; in the experiment on Setaria faberi (SETFA) [11], 0%; in experiment [12], 40%.

For `C/C=C\c1c(N)nc(C2CC2)nc1C(=O)OC` [2-62 (Z)], in [1], the “Percentage damage ECHCG, pre-emergence” value stood at 10%. In addition, in experiment [2], the “Percentage damage IPOHE, pre-emergence” value was determined as 100%. Further, the “Percentage damage SOLNI, pre-emergence” value with Solanum nigrum (SOLNI) [3] is recorded as 100%. Also, the “Percentage damage ALOMY, pre-emergence” value in experiment [4] came out at 20%. The “Percentage damage SETFA, pre-emergence” value with Setaria faberi (SETFA) [5] came to 20%. Also, the “Percentage damage AMARE, pre-emergence” value in [6] worked out at 90%. Besides, the “Percentage damage ECHCG, post-emergence” value in experiment [7] is given as 10%. In experiment [8], the “Percentage damage IPOHE, post-emergence” value was 100%. For the same molecule, the “Percentage damage SOLNI, post-emergence” value with Solanum nigrum (SOLNI) [9] was found to be 70%. Besides, in experiment [10], the “Percentage damage ALOMY, post-emergence” value was found to be 10%. Further, in the experiment on Setaria faberi (SETFA) [11], the “Percentage damage SETFA, post-emergence” value was 30%. In addition, the “Percentage damage AMARE, post-emergence” value in [12] is given as 70%.

`C/C=C/c1c(N)nc(-c2ccc(C(F)(F)F)cc2)nc1C(=O)OC` [Compound 31-62, 4-amino-6-methoxycarbonyl-5-prop-1-enyl-2-(4-tri-fluoromethylphenyl)-pyrimidine]: the pest or weed control at 1000 g/ha amounted to 0% in experiment [1]; 0% in experiment [2]; 0% in the experiment with Solanum nigrum (SOLNI) [3]; 0% in experiment [4]; 0% with Setaria faberi (SETFA) [5]; 20% in [6]. Further, the pest or weed control at 1000 g/ha in experiment [7] came out at 0%; in experiment [8], 50%; in the experiment with Solanum nigrum (SOLNI) [9], 50%; in experiment [10], 0%; with Setaria faberi (SETFA) [11], 10%; in [12] it was 30%.

Regarding `C=Cc1c(N)nc(-c2ccc(Br)cc2)nc1C(=O)OC` [Compound 6-61, 4-Amino-2-(4-bromophenyl)-5-ethenyl-6-methoxycarbonyl-pyrimidine], the pest or weed control at 1000 g/ha in [1] was determined as 50%; in experiment [2], 80%; in the experiment on Solanum nigrum (SOLNI) [3], 90%; in [4], 70%; with Setaria faberi (SETFA) [5], 30%; in experiment [6], 100%. In addition, the pest or weed control at 1000 g/ha in [7] turned out to be 50%; in [8] it was 70%; with Solanum nigrum (SOLNI) [9] it was 90%; in [10], 60%; in the experiment on Setaria faberi (SETFA) [11], 30%; in experiment [12], 100%.

With `C=Cc1c(N)nc(-c2ccc(OC(F)(F)F)cc2)nc1C(=O)OC` [Compound 47-61, 4-Amino-5-ethenyl-6-methoxycarbonyl-2-(4-trifluoromethoxy-phenyl)-pyrimidine], the pest or weed control at 1000 g/ha (in experiment [1]; in experiment [2]; with Solanum nigrum (SOLNI) [3]; in experiment [4]; in the experiment with Setaria faberi (SETFA) [5]; in [6]) was 0% in each case. Also, the pest or weed control at 1000 g/ha turned out to be 10% in experiment [7]; 10% in [8]; 70% in the experiment on Solanum nigrum (SOLNI) [9]; 10% in [10]; 10% in the experiment with Setaria faberi (SETFA) [11]; 100% in [12].

The values above are taken from patent US20120053053A1, “PYRIMIDINE DERIVATIVES AND THEIR USE AS HERBICIDES” (SYNGENTA CROP PROTECTION, LLC, priority 2009, published 2012).
